{"source": "patent US11371994B2", "about": "“Phosphorylated Akt-specific capture agents, compositions, and methods of using and making” (California Institute of Technology, priority 2013, dated 2022)", "note": "Square brackets hold non-standard residues; d marks the D form. Ends that are not written are not given here. dPra = C#CC[C@@H](N)C(=O)O"}
{"test_system": "mouse anti His6 antibody and anti mouse-alkaline phosphatase", "assay": "Elimination of peptide binders to antibody, on-bead BCIP colour test", "format": "binding", "settings": "colour intensity of beads; clear beads are not background binders", "method": "Since a preclear screen was not performed against the mouse-Anti His6 antibody and the anti-mouse-alkaline phosphatase antibody, to eliminate peptide binders to the antibodies, all the dark colored peptide hits obtained in the earlier target screen were synthesized on Tentagel-S—NH2 resin. 10 beads of each sequence was taken in spinnex tubes, equilibrated in binding buffer, and then treated with a 1:1000 diluted solution of mouse anti His6 antibody (Abcam) for an hour at 4° C. Following three five minute washes with the binding buffer, a 1:10,000 diluted solution of anti mouse-alkaline phosphatase was added and the shaken for one hour at 4° C. The beads were washed three times for five minutes each with wash buffer 3, followed by three five minute washes with wash buffer 4. The beads were then developed in BCIP solution for thirty minutes and quenched with 0.1 N HCl. The color intensity of the different sequences is recorded in Table 5, along with the probability that the sequence is a binder to the protein and not a background binder (clear beads). The probability arises from the poor resolution of certain amino acid standards in the Edman sequencer during sequencing the hits from the N terminal triligand target screen."}
{"compound": "(D-Pra)-ssGry ([dPra][dS][dS]G[dR][dY]) [SEQ ID NO: 14, on-bead 3° peptide hit of N-tL screen]", "Color": "No color"}
{"compound": "(D-Pra)-yyrfG ([dPra][dY][dY][dR][dF]G) [SEQ ID NO: 13, on-bead 3° peptide hit of N-tL screen]", "Color": "No color"}
{"compound": "SEQ ID NO: 52: on-bead peptide D-Pra-yvyrf, hit of N-tL screen ([dPra][dY][dV][dY][dR][dF])", "Color": "light"}
{"compound": "SEQ ID NO: 53: on-bead peptide D-Pra-sfrrf, hit of N-tL screen ([dPra][dS][dF][dR][dR][dF])", "Color": "light"}
{"compound": "SEQ ID NO: 58: on-bead peptide D-Pra-rriyy, hit of N-tL screen ([dPra][dR][dR][dI][dY][dY])", "Color": "dark"}
{"compound": "SEQ ID NO: 60: on-bead peptide D-Pra-kfqfr, hit of N-tL screen ([dPra][dK][dF][dQ][dF][dR])", "Color": "light"}
{"compound": "SEQ ID NO: 61: on-bead peptide D-Pra-lfqfr, hit of N-tL screen ([dPra][dL][dF][dQ][dF][dR])", "Color": "light"}
{"compound": "SEQ ID NO: 62: on-bead peptide D-Pra-kftfr, hit of N-tL screen ([dPra][dK][dF][dT][dF][dR])", "Color": "light"}
{"compound": "SEQ ID NO: 63: on-bead peptide D-Pra-lftfr, hit of N-tL screen ([dPra][dL][dF][dT][dF][dR])", "Color": "light"}
{"compound": "SEQ ID NO: 64: on-bead peptide D-Pra-rdrfr, hit of N-tL screen ([dPra][dR][dD][dR][dF][dR])", "Color": "No color"}
{"compound": "SEQ ID NO: 65: on-bead peptide D-Pra-rnrfr, hit of N-tL screen ([dPra][dR][dN][dR][dF][dR])", "Color": "medium"}
{"molecular_target": "Akt2 (Homo sapiens, UniProt P31751)", "sequence (P31751 whole entry)": "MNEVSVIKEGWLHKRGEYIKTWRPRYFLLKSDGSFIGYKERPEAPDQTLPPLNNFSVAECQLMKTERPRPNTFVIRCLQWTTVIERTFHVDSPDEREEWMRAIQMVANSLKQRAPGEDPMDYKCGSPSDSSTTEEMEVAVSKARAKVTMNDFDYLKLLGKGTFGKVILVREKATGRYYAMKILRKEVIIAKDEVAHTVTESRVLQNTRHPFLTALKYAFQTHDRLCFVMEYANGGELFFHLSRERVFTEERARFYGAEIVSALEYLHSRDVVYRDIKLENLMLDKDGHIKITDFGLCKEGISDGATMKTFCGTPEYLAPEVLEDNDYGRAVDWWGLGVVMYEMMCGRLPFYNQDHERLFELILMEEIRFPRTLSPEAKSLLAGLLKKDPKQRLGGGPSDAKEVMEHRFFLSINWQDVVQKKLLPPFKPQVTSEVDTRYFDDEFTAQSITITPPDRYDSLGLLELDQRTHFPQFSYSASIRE", "assay": "Single component ELISA, PCC agent as capture or detection agent (relative affinity)", "format": "binding", "design": "purchased Abcam", "settings": "relative affinity; read-out: affinity by single-component immunoassay", "source_text": "FIG. 23: A. ELISA assays in which the PCC Agents are utilized as either as surface-localized capture agents (for N-tL, C-tL) or as the detection agent (for mono-L, bi-L). Such assays provide relative affinity measurements, which are given as EC50 values in the key. […] C. C-tL distinguishes the full length Akt2 from isoform proteins Akt1 and Akt3. D. The 32 amino acid long C terminal fragment from Akt2, Akt1 and Akt3. The hydrophobic motif is highlighted in blue. pS refers to phospho-serine. […] F. Selectivity assays: Biotinylated ligands or biotinylated pS473 antibody is immobilized on streptavidin-agarose and treated with OVCAR3 cell lysate. The eluents are stained with a pan-Akt antibody or pS473 Akt antibody.\n1.25 μM biotinylated ligand was prepared by diluting the 1 mM stock in binding buffer (25 mM tris chloride, pH=7.4, 150 mM NaCl, 0.1% BSA, 0.05% Tween 20). The prepared ligand solution or 0.125% DMSO in buffer (buffer control) was immobilized on a High Capacity Streptavidin 96 well plate (Thermo Scientific). After washing away the excess ligand, the plate was blocked overnight with 1% BSA/25 mM tris chloride, pH=7.4/150 mM NaCl, 0.05% Tween 20. 2.5 μM solutions of the His6 (SEQ ID NO:28) tagged target phosphopeptide epitope Akt2 amino acids 450-481, His6 (SEQ ID NO:28) tagged Akt1 amino acids 449-480, His6 (SEQ ID NO:28) tagged Akt3 amino acids 448-479 were added to each of the wells. Following three washes with the binding buffer, the plate was treated for an hour with a 1:1000 dilution of anti His6 (SEQ ID NO:28) mouse monoclonal antibody. A 1:10,000 dilution of goat anti mouse antibody-Horse Radish Peroxide conjugate in binding buffer was added to the wells. The plates were washed four times, five minutes each, with 0.05% Tween 20/TBS (25 mM tris chloride, pH=7.5, 150 mM NaCl) and once with TBS (25 mM tris chloride, pH=7.5, 150 mM NaCl). Color was developed by adding TMB substrate (KPL) to each well. The reaction was quenched with 0.5 M H2SO4. The A450 measured on a 96-well plate reader. The Net A450 was obtained by subtracting the absorbance value for the blank control (no immobilized ligand) from each of the triplicate values obtained for the ligand-epitope interaction. The selectivity assay with full length His6 (SEQ ID NO:28) tagged Akt1, Akt2 and Akt3 was performed following the same protocol, using 25 nM protein instead of 2.5 μM His6 tagged peptide epitope.", "units": {"EC50": "nM"}}
{"compound": "CC(=O)NC(CCCCn1cc(C[C@@H](NC(=O)CCCCn2cc(C[C@@H](NC(=O)[C@@H](Cc3ccccc3)NC(=O)[C@@H](Cc3ccc(O)cc3)NC(=O)CNC(=O)[C@@H](CC(N)=O)NC(=O)[C@H](N)Cc3c[nH]cn3)C(=O)O)nn2)C(=O)N[C@H](Cc2c[nH]c3ccccc23)C(=O)N[C@H](CCCCN)C(=O)N[C@@H](C(=O)N[C@H](CCCCN)C(=O)N[C@H](CC(C)C)C(N)=O)C(C)C)nn1)C(=O)NCCOCCOCCOCCC(=O)NCCNC(=O)CCCC[C@@H]1SC[C@@H]2NC(=O)N[C@@H]21", "note": "(stereo partly shown) [bi-L]", "EC50": "~1000"}
{"compound": "CC(=O)NC(CCCCn1cc(C[C@@H](NC(C)=O)C(=O)N[C@H](Cc2c[nH]c3ccccc23)C(=O)N[C@H](CCCCN)C(=O)N[C@@H](C(=O)N[C@H](CCCCN)C(=O)N[C@H](CC(C)C)C(N)=O)C(C)C)nn1)C(=O)NCCOCCOCCOCCC(=O)NCCNC(=O)CCCC[C@@H]1SC[C@@H]2NC(=O)N[C@@H]21", "note": "(stereo partly shown) [mono-L]", "EC50": "~3000"}
{"molecular_target": "T1, Akt (Homo sapiens, UniProt P31751)", "T1 construct": "endogenous in cells; host or cells: OVCAR3", "T1 sequence (P31751 whole entry)": "as above", "assay": "OVCAR3 lysate pull-down (immunoprecipitation) assay", "format": "binding", "settings": "eluents stained with pan-Akt antibody", "method": "(§1) OVCAR3 cells (ATCC) were grown in RPMI-1640 media containing 20% fetal bovine serum. Passage three cells were grown to ˜80% confluence. Cells were lysed with lysis buffer (10 mM Tris-Cl (pH=7.5), 100 mM NaCl, 1% (v/v) Triton X-100, 0.1% SDS (w/v), 0.5% deoxycholate, 1 mM DTT, 1 mM EDTA, 1× PhosStop phosphatase inhibitors (Roche), 1× Complete protease inhibitors (Roche)) and the amount of protein measured using BCA Protein Assay Kit (Pierce Biotechnologies, Inc). Streptavidin-agarose resin solution (EMD) was swelled in TBST (25 mM tris chloride, pH=7.5, 150 mM NaCl, 0.05% Tween-20). Each of the biotinylated ligands was immobilized on the Streptavidin-agarose resin by adding 7.2 μL of 1 mM ligand stock (DMSO) to 10 μL of the swelled streptavidin-agarose resin. For the blank control, the resin was treated with 7.2 μL of 1 mM biotinylated acyl glycine. […] After shaking overnight at 4° C., 50 μM D-biotin was added to the resin to block any remaining sites. The resin was washed with TBST five times, for fifteen minutes each. The resin was then swelled in binding buffer for two hours. To each of the immobilized ligands, 200 μL OVCAR3 cell lysate (1.9 mg/ml) was added. The tubes were shaken at 4° C. for 18 hours. The beads were extensively washed, three times for fifteen minutes in binding buffer, three times (fifteen minutes) in TBST, and three times (fifteen minutes) in TBS to remove unbound proteins. The resin bound proteins were eluted by adding 40 μL of 2×SDS-PAGE sample loading buffer (BioRad) and heating at 95° C. for five minutes. A 1:10 diluted sample of lysate in sample loading buffer was prepared by mixing 1 μL of the sample with 9 μL sample loading buffer and denaturing the sample by heating at 95° C. for five minutes. 10 μL of each sample was loaded on a 12% SDS-PAGE gels (BioRad) and run for 80 minutes at 110 volts. Three identical gels were loaded and run at the same time. One gel was used for Coomassie staining with Coomassie Fluor Orange Protein Gel Stain (Molecular Probes) following the manufacturer's protocol. The two other gels were transferred to nitrocellulose membranes by the semidry transfer method, blocked for two hours at 4° C. with 5% non-fat milk, and treated overnight at 4° C. with a 1:1000 dilution of pan-Akt rabbit monoclonal antibody (Cell Signaling Technology) and a 1:1000 dilution of pS473 Akt rabbit monoclonal antibody (Cell Signaling Technology), respectively, in 0.5% non-fat milk. The membranes were washed and treated for an hour with a 1:10,000 dilution of monoclonal mouse anti-rabbit-HRP secondary antibody (Cell Signaling Technology) in 0.5% milk. After five washes of five minutes each with TBST and one wash of five minutes with TBS, the blots were developed with West Dura ECL substrate (Thermo Scientific) and imaged on film."}
{"compound": "CC(=O)NC(CCCCn1cc(C[C@@H](NC(C)=O)C(=O)N[C@H](Cc2c[nH]c3ccccc23)C(=O)N[C@H](CCCCN)C(=O)N[C@@H](C(=O)N[C@H](CCCCN)C(=O)N[C@H](CC(C)C)C(N)=O)C(C)C)nn1)C(=O)NCCOCCOCCOCCC(=O)NCCNC(=O)CCCC[C@@H]1SC[C@@H]2NC(=O)N[C@@H]21", "note": "(stereo partly shown) [mono-L]", "immunoprecipitation of Akt from OVCAR3 cell lysate": "sufficient selectivity to immunoprecipitate Akt from OVCAR3 cancer cell lysate"}
{"compound": "Bi5: biligand candidate with hnGii-(D-Pra) as the 2° peptide arm (peptide 1 [dPra][dW][dK][dV][dK][dL]; peptide 2 [dH][dN]G[dI][dI][dPra]; not fully specified (bridges))", "immunoprecipitation of Akt from OVCAR3 cell lysate": "did not show any Akt pulldown"}
{"compound": "Bi6: biligand candidate with hnGGd-(D-Pra) as the 2° peptide arm (peptide 1 [dPra][dW][dK][dV][dK][dL]; peptide 2 [dH][dN]GG[dD][dPra]; not fully specified (bridges))", "immunoprecipitation of Akt from OVCAR3 cell lysate": "did not show any Akt pulldown"}
{"compound": "N-tri2: N terminal triligand candidate: (D-Pra)-ssGry clicked to anchor-3N (peptide 1 [dW][dK][dV][dK][dL]; peptide 2 [dH][dN]G[dY][dF]; peptide 3 [dPra][dS][dS]G[dR][dY]; not fully specified (bridges); also: arms clicked by triazole to anchor-3N scaffold (not listed))", "immunoprecipitation of Akt from OVCAR3 cell lysate": "immunoprecipitate Akt2 from OVCAR3 cells"}
{"molecular_target": "T1, Akt", "assay": "OVCAR3 lysate pull-down (immunoprecipitation) assay", "format": "binding", "settings": "eluents stained with pan-Akt antibody; listed as Bi2", "method": "as §1"}
{"compound": "CC(=O)NC(CCCCn1cc(C[C@@H](NC(=O)CCCCn2cc(C[C@@H](NC(=O)[C@@H](Cc3ccccc3)NC(=O)[C@@H](Cc3ccc(O)cc3)NC(=O)CNC(=O)[C@@H](CC(N)=O)NC(=O)[C@H](N)Cc3c[nH]cn3)C(=O)O)nn2)C(=O)N[C@H](Cc2c[nH]c3ccccc23)C(=O)N[C@H](CCCCN)C(=O)N[C@@H](C(=O)N[C@H](CCCCN)C(=O)N[C@H](CC(C)C)C(N)=O)C(C)C)nn1)C(=O)NCCOCCOCCOCCC(=O)NCCNC(=O)CCCC[C@@H]1SC[C@@H]2NC(=O)N[C@@H]21", "note": "(stereo partly shown) [bi-L]", "immunoprecipitation of Akt from OVCAR3 cell lysate": "best candidate"}
{"molecular_target": "T1, Akt", "assay": "OVCAR3 lysate pull-down (immunoprecipitation) assay", "format": "binding", "settings": "eluents stained with pan-Akt antibody; listed as biligand", "method": "as §1"}
{"compound": "CC(=O)NC(CCCCn1cc(C[C@@H](NC(=O)CCCCn2cc(C[C@@H](NC(=O)[C@@H](Cc3ccccc3)NC(=O)[C@@H](Cc3ccc(O)cc3)NC(=O)CNC(=O)[C@@H](CC(N)=O)NC(=O)[C@H](N)Cc3c[nH]cn3)C(=O)O)nn2)C(=O)N[C@H](Cc2c[nH]c3ccccc23)C(=O)N[C@H](CCCCN)C(=O)N[C@@H](C(=O)N[C@H](CCCCN)C(=O)N[C@H](CC(C)C)C(N)=O)C(C)C)nn1)C(=O)NCCOCCOCCOCCC(=O)NCCNC(=O)CCCC[C@@H]1SC[C@@H]2NC(=O)N[C@@H]21", "note": "(stereo partly shown) [bi-L]", "immunoprecipitation of Akt from OVCAR3 cell lysate": "higher selectivity to immunopreciptate Akt from OVCAR3 cell lysate"}
